Measured values from patent US20190060275A1, “Administration of hypoxia activated prodrugs and antiangiogenic agents for the treatment of cancer” (Molecular Templates, Inc., priority 2010, published 2019).
Read-outs that look alike come from different tables or passages of the source. Marks after values point to notes of the source that are not given here.

How the values were obtained:
[1] = Maximum body weight loss (toxicity indicator) in xenograft-bearing nude mice
Method: (§1) Xenograft tumors were established by s.c. implantation of 5×10^6 786-O human renal cell carcinoma (RCC), 5×10^6 A375 melanoma, or 1×10^6 H460 human non-small cell lung cancer (NSCLC) cells into the flanks of nude mice, or 5×10^6 PLC/PRF/5 hepatocellular carcinoma (HCC) into the flanks of Severe Combined Immunodeficient (SCID) mice. Tumor hypoxia was detected by pimonidazole immunostaining, and morphometric analysis was performed to determine the hypoxic fraction. When tumor size was approximately 100-150 mm^3, sunitinib or sorafenib was administered daily. Sunitinib at 20, 40, or 80 mg/kg was administered p.o. daily for 3 weeks (QDx21). For all of these studies except the study utilizing the A375 melanoma model, TH-302 administration began one week after antiangiogenic agent administration. In the A375 melanoma model, TH-302 administration was begun on the same day as sorafenib administration. TH-302 at 50 mg/kg was administered i.p. daily for 5 days on and 2 days off (QDx5) for 2 weeks. Sunitinib was administered 4 hours before TH-302 on days when both agents were given.
(§2) In another study, sunitinib was administered for 5 weeks, and TH-302 was administered for 4 weeks, beginning one week after sunitinib therapy was initiated, in accordance with the methods of the invention.

[2] = test system: 786-O human renal cell carcinoma (RCC) xenograft; assay: Tumor growth inhibition in 786-O RCC xenograft; type: in vivo, nude mice
[3] = test system: 786-O human renal cell carcinoma (RCC) xenograft; assay: Tumor growth inhibition in 786-O RCC xenograft; type: in vivo, nude mice; remark: listed apart in the source
Method: as §1
The following tables summarize the data obtained in the studies described above.

[4] = test system: 786-O RCC xenograft tumors; assay: Antiangiogenic-induced hypoxia in 786-O xenograft tumors (pimonidazole / Hoechst 33342, morphometric analysis); type: in vivo, nude mice; conditions: for tumor hypoxia volume: vehicle 0.8±0.2%; for hypoxic fraction in the 786-O xenograft tumor: morphometric analysis, vehicle 1.4±0.9%
Method: To measure the extent of tumor hypoxia and to illustrate methods for increasing the hypoxic fraction of a tumor with an antiangiogenic agent, so as to render the tumor more susceptible to treatment with a hypoxia activated prodrug, nude mice bearing 786-O RCC xenograft tumors were randomized into 3 groups, vehicle (8 mice), sunitinib (Sutent, Pfizer) 20 mg/kg and 40 mg/kg, QDx5, oral, respectively (6 mice each). Seventy one hours after the last sunitinib administration, pimonidazole was administered. Hoechst 33342 was administered 1 hour after administering pimonidazole. About a minute after administering the Hoechst 33342, the animals were sacrificed and tissues harvested.
Sorafenib 20 mpk (mgs per kilogram) and 40 mpk were orally administered once daily for 7 days. Pimonidazole was administered 3 h after the last sorafenib administration. Hoechst 33342 was administered 1 h after administering pimonidazole. About a minute after administering the Hoechst 33342, the animals were sacrificed and tissues harvested.

[5] = test system: PLC/PRF/5 hepatocellular cancer xenograft tumor; assay: Sorafenib-induced hypoxia in PLC/PRF/5 xenograft tumors; conditions: vehicle 4.3±0.4%
Method: The hypoxia level in another cancer, hepatocellular cancer PLC/PRF/5, after sorafenib administration was also measured. The measurement was carried out as above, except that sorafenib was administered at 20 or 40 mg/kg once daily for 8 days.

[6] = test system: PLC/PRF/5 hepatocellular carcinoma (HCC) xenograft; assay: Tumor growth inhibition in PLC/PRF/5 HCC xenograft; type: in vivo, SCID mice; conditions: HCC: PLC/PRF/5; Sorafenib 20 mpk QD×16; TH-302 50 mpk
Method: as §1

[7] = test system: H460 human non-small cell lung cancer (NSCLC) xenograft; assay: Tumor growth inhibition in H460 NSCLC xenograft; type: in vivo, nude mice
Method: as §1, §2

[8] = Maximum body weight loss in PLC/PRF/5 xenograft-bearing SCID mice; conditions: HCC: PLC/PRF/5; Sorafenib 20 mpk; TH-302 50 mpk; vehicle 5.9
Method: as §1, §2

[9] = test system: RCC; conditions: cited from earlier work
[10] = test system: A375 melanoma xenograft; assay: Tumor growth inhibition in A375 melanoma xenograft; type: in vivo, nude mice; conditions: Sorafenib 20 mpk QD×16, TH-302 50 mpk begun on the same day as sorafenib
Method: as §1

[11] = test system: H460 non small cell lung cancer (NSCLC) xenograft tumors; assay: Sunitinib-induced hypoxia in H460 xenograft tumors (pimonidazole / Hoechst 33342, morphometrics); type: in vivo, nude mice; conditions: sunitinib 40 mg/kg QDx5 intraperitoneally; vehicle 7.3±3.8%; p<0.05
Method: To measure the extent of tumor hypoxia and to illustrate methods for increasing the hypoxic fraction of a tumor with an antiangiogenic agent, so as to render the tumor more susceptible to treatment with a hypoxia activated prodrug, nude mice bearing H460 non small cell lung cancer (NSCLC) xenograft tumors were intraperitoneally administered sunitinib with the dose of 20 mg/kg and 40 mg/kg. QDx5, respectively (5 mice each), and compared with vehicle treated animals (5 mice). […] The percent hypoxic fraction in the harvested tissue was analyzed by morphometrics.

[12] = test system: breast cancer; conditions: cited from earlier work
[13] = test system: metastatic renal cell carcinoma (mRCC); conditions: cited from earlier work
[14] = test system: RCC; conditions: cited from earlier work; remark: listed apart in the source
[15] = Melanoma: A375, Sorafenib 20 mpk, TH-302 50 mpk
[16] = NSCLC: H460, Sorafenib 20 mpk, TH-302 50 mpk
[17] = RCC: 786-O, Sorafenib 30 mpk, TH-302 50 mpk
[18] = RCC: 786-O, Sorafenib 30 mpk QD×14, TH-302 50 mpk QDx5/week for two weeks
[19] = NSCLC: H460, Sorafenib 20 mpk QD×16, TH-302 50 mpk
[20] = H460, Sunitinib 5 wks + TH-302 4 wks, sunitinib 40 mpk, alone or with TH-302
[21] = H460, Sunitinib 5 wks + TH-302 4 wks, sunitinib 80 mpk, alone or with TH-302
[22] = H460, Sunitinib 3 wks + TH-302 2 wks study, TH-302 50 mpk monotherapy
[23] = H460, Sunitinib 5 wks + TH-302 4 wks study, TH-302 50 mpk monotherapy

In the case of `CO[C@H]1C[C@@H]2CC[C@@H](C)[C@@](O)(O2)C(=O)C(=O)N2CCCC[C@H]2C(=O)O[C@H]([C@H](C)C[C@@H]2CC[C@@H](OCCO)[C@H](OC)C2)CC(=O)[C@H](C)/C=C(\C)[C@@H](O)[C@@H](OC)C(=O)[C@H](C)C[C@H](C)/C=C/C=C/C=C/1C` [Everolimus, everolimus], the “Max. BW loss (%)” value ([1]; 786-O RCC, Everolimus 5 mpk monotherapy) is reported as 0%, the “TGI (%)” value ([2]; Everolimus 5 mpk QD×19 monotherapy) is reported as 48.8* % and the TGI ([3]; 786-O RCC, TH-302 50 mgs per kg QD×19 or 12 days from Day 8, everolimus QD×19) is reported as “less than 50%”.

For `CNC(=O)c1cc(Oc2ccc(NC(=O)Nc3ccc(Cl)c(C(F)(F)F)c3)cc2)ccn1` [Sorafenib, sorafenib], the “Max. BW loss (%)” value [1, 15] was 3.1%, the “Max. BW loss (%)” value [1, 16] was 4.8% and the “Max. BW loss (%)” value [1, 17] was 0.4%. It also gave a tumor hypoxia volume ([4]; sorafenib 20 mg/kg orally once daily for 7 days) of 3.5±1.6%, a tumor hypoxia volume ([4]; sorafenib 40 mg/kg orally once daily for 7 days, p<0.05 vs. vehicle) of 10±2.5% and a tumor hypoxia volume ([5]; sorafenib 20 mg/kg once daily for 8 days, p<0.05 vs. vehicle) of 6.5±0.6%. For the same molecule, the tumor hypoxia volume ([5]; sorafenib 40 mg/kg once daily for 8 days, p<0.001 vs. vehicle) was 9.3±0.7%, the “TGI (%)” value [3, 18] was 38 * % and the “TGI (%)” value [6] was 56 * %. The “TGI (%)” value [7, 19] was 74 * %, the “Max. BW loss (%)” value [8] was 5.6% and the “median PFS” value ([9]; placebo 12 weeks) was 24 weeks. For the same molecule, the OS ([9]; placebo 14.3 months) was 17.8 months and the “TGI (%)” value [10] was 67 * %.

In the case of `CCN(CC)CCNC(=O)c1c(C)[nH]c(/C=C2\C(=O)Nc3ccc(F)cc32)c1C` [Sunitinib, sunitinib], the “Max. BW loss (%)” value ([1]; 786-O study, sunitinib 20 mpk, alone or with TH-302) is reported as 0%, the “Max. BW loss (%)” value ([1]; 786-O study, sunitinib 40 mpk, alone or with TH-302) is reported as 0% and the “Max. BW loss (%)” value ([1]; H460, Sunitinib 3 wks + TH-302 2 wks, sunitinib 40 mpk, alone or with TH-302) is reported as 0%. For the same molecule, the “Max. BW loss (%)” value ([1]; H460, Sunitinib 3 wks + TH-302 2 wks, sunitinib 80 mpk, alone or with TH-302) was 0%, the “Max. BW loss (%)” value [1, 20] was 0.1% and the “Max. BW loss (%)” value [1, 21] was 0.5%. The “hypoxic fraction in the 786-O xenograft tumor” value ([4]; sunitinib 20 mg/kg QDx5 oral) was 1.6±0.9%, the “hypoxic fraction in the 786-O xenograft tumor” value ([4]; sunitinib 40 mg/kg QDx5 oral) was 17.2±0.9% and the “TGI (%)” value ([3]; 786-O, sunitinib 20 mpk p.o. QDx21, alone or with TH-302 50 mg/kg begun one week later) was 16.2%. The “TGI (%)” value ([3]; 786-O, sunitinib 40 mpk p.o. QDx21, alone or with TH-302 50 mg/kg begun one week later) was 37.9%, the “TGI (%)” value ([3]; 786-O, sunitinib 40 mpk p.o. QDx21, alone or with TH-302 50 mg/kg begun one week later, listed as sunitinib) was 38% and the “TGI (%)” value ([7]; H460, Sunitinib 3 wks + TH-302 2 wks, sunitinib 40 mpk, alone or with TH-302 50 mg/kg) was 72.9* %. For the same molecule, the “TGI (%)” value ([7]; H460, Sunitinib 3 wks + TH-302 2 wks, sunitinib 80 mpk, alone or with TH-302 50 mg/kg) was 77.7* %, the “TGI (%)” value ([7]; H460, Sunitinib 3 wks + TH-302 2 wks, sunitinib 80 mpk, alone or with TH-302 50 mg/kg, listed as sunitinib) was 78% and the “TGI (%)” value [7, 20] was 83* %. The “TGI (%)” value [7, 21] was 96* % and the “tumor hypoxia volume (percent hypoxic fraction)” value [11] was 24±3.2%.

For `Cn1c(COP(=O)(NCCBr)NCCBr)cnc1[N+](=O)[O-]` [TH-302], the “Max. BW loss (%)” value ([1]; 786-O RCC, TH-302 50 mpk from Day 1, alone or with Everolimus 5 mpk) was 0.2%, the “Max. BW loss (%)” value ([1]; 786-O RCC, TH-302 50 mpk from Day 8, alone or with Everolimus 5 mpk) was 0% and the “Max. BW loss (%)” value ([1]; 786-O study, TH-302 50 mpk monotherapy) was 0.1%. For the same molecule, the “Max. BW loss (%)” value [1, 22] was 7.1%, the “Max. BW loss (%)” value [1, 23] was 0.6% and the “Max. BW loss (%)” value [1, 15] was 1.8%. The “Max. BW loss (%)” value [1, 16] was 4.8%, the “Max. BW loss (%)” value [1, 17] was 0% and the TGI ([2]; TH-302 50 mgs per kg QD×19 or 12 days from Day 8, everolimus QD×19) was 16%. The “TGI (%)” value ([2]; TH-302 50 mpk from Day 1 (QD×19), alone or with Everolimus 5 mpk QD×19) was 15.7%, the “TGI (%)” value ([2]; TH-302 50 mpk from Day 8 (12 days), alone or with Everolimus 5 mpk QD×19) was 14.2% and the “TGI (%)” value ([3]; 786-O, TH-302 50 mpk i.p. QDx5 for 2 weeks, monotherapy) was 9.9%. The “TGI (%)” value [3, 18] was 15%, the “TGI (%)” value [6] was 15% and the “TGI (%)” value [7, 22] was 67.6* %. For the same molecule, the “TGI (%)” value [7, 23] was 81* %, the “TGI (%)” value [7, 19] was 78 * % and the “Max. BW loss (%)” value [8] was 6.3%. For the same molecule, the “TGI (%)” value [10] was 46 * %.

For `CC(=O)O[C@H]1C(=O)[C@@]2(C)[C@H]([C@H](OC(=O)c3ccccc3)[C@]3(O)C[C@H](OC(=O)[C@H](O)[C@@H](NC(=O)c4ccccc4)c4ccccc4)C(C)=C1C3(C)C)[C@]1(OC(C)=O)CO[C@@H]1C[C@@H]2O` [paclitaxel], the OS [12] is listed as 26.5 months and the “median PFS” value [12] is listed as 5.8 months.

In the case of IFN-α, the OS [13] is given as 23 months, the “median PFS” value [13] is given as 5.4 months and the OS [14] is given as 21.8 months. The “median PFS” value [14] was 5 months.
